Source: patent US20250170267A1, “ANTIBODY-DRUG CONJUGATE PRECURSOR AND INTERMEDIATE FOR SYNTHESIS THEREOF” (UBE Corporation, priority 2022, published 2025)
Numbered stars: 1 amine (or outer) side, 2 acyl side, 3 side chain; on linkers, the order of the positions; unused ones are H or OH. Square brackets hold non-standard residues; d marks the D form. Peptide text beside a SMILES is read from it. * marks the point of attachment. Exatecan = CC[C@@]1(O)C(=O)OCc2c1cc1n(c2=O)Cc2c-1nc1cc(F)c(C)c3c1c2[C@@H](N*)CC3; Hexanoyl(6-maleimido) = O=C1C=CC(=O)N1CCCCCC(=O)*; NHCH2OCH2CO = O=C(COCN[*:1])[*:2]; hSer(lactone) = O=C1OCC[C@@H]1N*

Columns and labels:
human topoisomerase I = biological target: T1, human topoisomerase I (Homo sapiens, UniProt P11387); test: Topoisomerase I activity inhibition test; type: biochemical; conditions: supercoiled plasmid DNA, 37° C., 60 minutes
T1 construct: purchased Sigma T9069
T1 sequence (P11387 1-765): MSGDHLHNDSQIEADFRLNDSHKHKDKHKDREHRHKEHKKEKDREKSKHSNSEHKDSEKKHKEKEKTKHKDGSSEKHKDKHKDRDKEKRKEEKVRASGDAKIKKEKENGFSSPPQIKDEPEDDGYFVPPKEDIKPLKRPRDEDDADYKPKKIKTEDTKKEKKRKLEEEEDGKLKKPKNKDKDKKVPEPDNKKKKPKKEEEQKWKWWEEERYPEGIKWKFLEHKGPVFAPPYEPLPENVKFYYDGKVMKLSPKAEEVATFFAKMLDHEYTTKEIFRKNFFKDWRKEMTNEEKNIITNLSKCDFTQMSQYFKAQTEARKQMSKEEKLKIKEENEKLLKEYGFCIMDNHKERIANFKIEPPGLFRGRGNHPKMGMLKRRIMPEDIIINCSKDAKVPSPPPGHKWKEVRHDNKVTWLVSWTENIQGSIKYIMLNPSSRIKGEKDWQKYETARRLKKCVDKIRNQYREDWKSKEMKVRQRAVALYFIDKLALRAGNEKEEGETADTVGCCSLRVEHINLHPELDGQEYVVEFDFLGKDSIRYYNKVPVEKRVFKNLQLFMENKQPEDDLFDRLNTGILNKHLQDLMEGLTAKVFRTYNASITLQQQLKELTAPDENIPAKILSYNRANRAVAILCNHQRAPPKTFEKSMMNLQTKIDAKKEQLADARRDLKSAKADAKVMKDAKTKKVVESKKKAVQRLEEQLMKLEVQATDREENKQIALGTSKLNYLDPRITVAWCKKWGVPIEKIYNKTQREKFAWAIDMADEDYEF
Experimental: For measuring topoisomerase I activity inhibitory actions, Human DNA Topoisomerase I Assay Kit (manufactured by ProFoldin, HRA100K) was used. A human topoisomerase I (manufactured by Sigma, T9069) was added to a Tris-HCl buffer containing KCl, DTT, MgCl2, EDTA, and BSA to prepare a reaction solution. The reaction solution (35.2 μL) and a test compound solution (4.4 μL) prepared by an aqueous solution containing 10% DMSO were mixed in a 1.5 mL microtube, and the resulting mixture was reacted at 37° C. for 10 minutes. Subsequently, a supercoiled plasmid DNA (4.4 μL) was added thereto, and the resulting mixture was reacted at 37° C. for 60 minutes. After the reaction, the solution was added to a 96 well plate (manufactured by Corning Inc., 3904) at 40 μL/well, and a Dye H19 solution (250 μL) diluted 10 times with the buffer included with the kit was added thereto. A microplate reader (Infinite F500, manufactured by TECAN) was used to measure the fluorescence intensity (excitation wavelength: 485 nm, detection wavelength: 535 nm) of each well.
The topoisomerase I activity inhibition rate (%) was calculated by the following equation.

[1] = Retention time in HPLC (index of hydrophilicity); type: physicochemical; conditions: BEH C18, 0.1% formic acid/acetonitrile gradient, 40° C.
Experimental: As an index of hydrophilicity of the Examples, the retention time (RT) in HPLC analysis was measured, and compared.
Device: LCMS2020 system Shimadzu Corporation
Column: Acquity UPLC (registered trademark) BEH C18 (2.1×50 mm, 1.7 μm)_Waters
Eluent: Solution A: 0.1% aqueous solution of formic acid, Solution B: 0.1% solution of formic acid in acetonitrile

human liver lysosome = test: Metabolism test using human liver lysosomal fraction; type: in vitro ADME; conditions: 37° C., 24 hours, released drug, LC-MS/MS
Experimental: To a reaction composition solution (X10 Catabolic Buffer (manufactured by SEKISUI-Xenotech, LLC., K5200))(60 μL) in which human liver lysosome (manufactured by SEKISUI-Xenotech, LLC., Cat No. H610.L 2.5 mg/mL)(corresponding to 0.125 mg of protein) was suspended and distilled water (manufactured by FUJIFILM Wako Pure Chemical Corporation, for HPLC)(10 μL) was added 1.2 μM test compound (antibody-drug conjugate produced in ADC Production examples)(25 μL) dissolved in PBS to prepare a reaction solution. After the reaction solution was incubated at 37° C. for 24 hours, “an antitumor drug molecule or an analog thereof, or a derivative thereof” released from the antibody-drug conjugate into the reaction solution was quantified by LC-MS/MS (high performance liquid chromatography/mass spectrometer system) under the following conditions. LC-MS/MS analysis conditions
(§1) LC: LC20 or LC30 HPLC system manufactured by Shimadzu Corporation
(§2) Column: Phenomenex Kinetex C18 (50×2.1 mm, 2.6 μm)
(§3) Column temperature: 40° C.
(§4) Mobile phase A: 0.1% aqueous solution of formic acid, Mobile phase B: 0.1% solution of formic acid in a mixture of 50% acetonitrile/methanol
(§5) Mode: Positive or Negative
(§6) The release rate (%) of drug was calculated by the following equation.

human liver Cathepsin B = biological target: T2, human liver Cathepsin B (Homo sapiens, UniProt P07858); test: Metabolism test using human liver Cathepsin B; type: in vitro ADME; conditions: 37° C., 24 hours, released drug, LC-MS/MS
T2 construct: human liver Cathepsin B (manufactured by Sigma-Aldrich Co. LLC, Cat No. C8571 25 μg/vial); purchased Sigma-Aldrich Co. LLC C8571; host or cells: human liver
Experimental: To human liver Cathepsin B (manufactured by Sigma-Aldrich Co. LLC, Cat No. C8571 25 μg/vial)(corresponding to 400 Unit/mL)(5 μL), X10 Catabolic Buffer (manufactured by SEKISUI-Xenotech, LLC., K5200)(10 μL), 2.5 mM Bovine Serum Albumin (manufactured by FUJIFILM Wako Pure Chemical Corporation, Cat No. 012-15093)(5 μL), and distilled water (manufactured by FUJIFILM Wako Pure Chemical Corporation, for HPLC)(55 μL) was added 1.2 μM test compound (antibody-drug conjugate prepared in ADC Production examples)(25 μL) dissolved in PBS to prepare a reaction solution. After the reaction solution was incubated at 37° C. for 24 hours, “an antitumor drug molecule or an analog thereof, or a derivative thereof” released from the antibody-drug conjugate into the reaction solution was quantified by LC-MS/MS (high performance liquid chromatography/mass spectrometer system) under the following conditions. LC-MS/MS analysis conditions
as §1, §2, §3, §4, §5, §6

[2] = Pharmacokinetic test (serum trastuzumab residual rate); type: in vivo; conditions: female BALB/c mouse, intravenous; 3 days vs 5 minutes after administration
From the text: After a prescribed time period, the blood was collected from the jugular vein or abdominal vein, and centrifuged to prepare a serum. The resulting serum was cryopreserved until the measurement.

Compound `CC[C@@]1(O)C(=O)OCc2c1cc1n(c2=O)Cc2c-1nc1cc(F)c(C)c3c1c2[C@@H](NC(=O)c1ccc(N)cc1)CC3` [Example U-005] has an IC50 (human topoisomerase I) of no more than 15 µM.

`CC[C@@]1(O)C(=O)OCc2c1cc1n(c2=O)Cc2c-1nc1cc(F)c(C)c3c1c2[C@@H](NC(=O)Cc1cccc(N)c1)CC3` [Example U-006] showed an IC50 (human topoisomerase I) of no more than 15 µM.

With `CC[C@H](C)[C@@H]([C@@H](CC(=O)N1CCC[C@H]1[C@H](OC)[C@@H](C)C(=O)N[C@H](C)[C@@H](OP(=O)(O)OCc1ccc(NC(=O)[C@H](CCCNC(N)=O)NC(=O)[C@@H](NC(=O)[C@H](CC(=O)N[C@H]2CCOC2=O)NC(=O)CCOCCOCCOCCOCCNC(=O)[C@H](CNC(=O)CCP(=O)(O)O)N2C(=O)C=CC2=O)C(C)C)cc1)c1ccccc1)OC)N(C)C(=O)[C@@H](NC(=O)[C@H](C(C)C)N(C)C)C(C)C` [Example 3] the “Retention time in HPLC measurement” value ([1]; Table 5 (MMAE-type precursors)) was 0.70 min.

Work on `CC[C@@]1(O)C(=O)OCc2c1cc1n(c2=O)Cc2c-1nc1cc(F)c(C)c3c1c2[C@@H](NC(=O)Cc1ccc(N)cc1)CC3` [Example U-007] yielded an IC50 (human topoisomerase I) of no more than 15 µM.

With `C=C1C[C@@H]2CC[C@@]34C[C@H]5O[C@H]6[C@@H](O3)[C@H]3O[C@H](CC[C@@H]3O[C@H]6[C@H]5O4)CC(=O)C[C@@H]3[C@@H](OC)[C@@H](C[C@H](O)CNC(=O)OCc4ccc(NC(=O)[C@H](CCCNC(N)=O)NC(=O)[C@@H](NC(=O)[C@H](CC(=O)N[C@H]5CCOC5=O)NC(=O)CCOCCOCCOP(=O)(O)OCCNC(=O)[C@H](CNC(=O)CCP(=O)(O)O)N5C(=O)C=CC5=O)C(C)C)cc4)O[C@H]3C[C@H]3O[C@@H](CC[C@@H]1O2)C[C@@H](C)C3=C` [Example 17] the “Release rate (%) of drug from ADC” value (human liver lysosome) was 56%, the “Release rate (%) of drug from ADC” value (human liver Cathepsin B) was 58% and the “Retention time in HPLC measurement” value ([1]; Table 6 (eribulin precursors)) was 1.04 min.

`CC[C@@]1(O)C(=O)OCc2c1cc1n(c2=O)Cc2c-1nc1cc(F)c(C)c3c1c2[C@@H](NC(=O)CNC)CC3` [Example U-003] gave an IC50 (human topoisomerase I) of no more than 15 µM.

For `CC[C@@]1(O)C(=O)OCc2c1cc1n(c2=O)Cc2c-1nc1cc(F)c(C)c3c1c2[C@@H](NC(=O)COCNC(=O)CNC(=O)[C@H](Cc1ccccc1)NC(=O)CNC(=O)CNC(=O)[C@H](CC(=O)N[C@H]1CCOC1=O)NC(=O)CCCCCN1C(=O)C=CC1=O)CC3` [Example 13] ({Hexanoyl(6-maleimido)}-D(hSer(lactone))GGFG[NHCH2OCH2CO]-Exatecan), the “Release rate (%) of drug from ADC” value (human liver lysosome) was 76%, the “Release rate (%) of drug from ADC” value (human liver Cathepsin B) was 24% and the “Serum trastuzumab residual rate after 3 days from administration (%)” value [2] was 25%.
